Source: patent publication US20060029623A1, “Invert emulsions comprising at least one active agent sensitive to water and cosmetic/dermatological applications thereof” (GALDERMA RESEARCH & DEVELOPMENT, S.N.C., priority 2003, published 2006)

Experiment: Maximum solubility of the vitamin D derivative in various excipients (excess active, stirring 12 h, filtration, HPLC assay)
Format: physicochemical
Experimental: In the table below are the solubility results for (4E,6E)-7-[3-(3,4-bishydroxymethylbenzyloxy)phenyl]-3-ethylnona4,6-dien-3-ol, a vitamin D analogue, in various excipients:
These maximum solubilities of (4E,6E)-7-[3-(3,4-bishydroxymethylbenzyloxy)phenyl]-3-ethylnona-4,6-dien-3-ol, a vitamin D analogue, were measured after stirring for 12 h with a magnetic stirrer bar, at room temperature, with an excess of active ingredient in the excipient to be analyzed. The suspension is then filtered (1.2 μm) and then the filtrate is assayed by HPLC.

Solubility, Concentration in % (w/w) (in Cetiol SN, room temperature): <0.1 % (w/w)
Solubility, Concentration in % (w/w) (in Crodamol IPP, room temperature): 0.2 % (w/w)
Solubility, Concentration in % (w/w) (in Ethanol Rectapur, room temperature): 23.3 % (w/w)
Solubility, Concentration in % (w/w) (in Eutanol G, room temperature): 0.5 % (w/w)
Solubility, Concentration in % (w/w) (in Glycerine, room temperature): <0.05 % (w/w)
Solubility, Concentration in % (w/w) (in Marcol 172, room temperature): <0.05 % (w/w)
Solubility, Concentration in % (w/w) (in Miglyol 812, room temperature): 0.4 % (w/w)
Solubility, Concentration in % (w/w) (in PEG 400, room temperature): 17.8 % (w/w)
Solubility, Concentration in % (w/w) (in Primol 352, room temperature): <0.05 % (w/w)
Solubility, Concentration in % (w/w) (in Propylene glycol, room temperature): 6.7 % (w/w)
Solubility, Concentration in % (w/w) (in Silicone DC 200, room temperature): <0.05 % (w/w)
Solubility, Concentration in % (w/w) (in Tegosoft TN, room temperature): 0.3 % (w/w)
Solubility, Concentration in % (w/w) (in Transcutol, room temperature): 27.0 % (w/w)
Solubility, Concentration in % (w/w) (solution pH 4, room temperature): <0.05 % (w/w)
Solubility, Concentration in % (w/w) (solution pH 7, room temperature): <0.05 % (w/w)
Compound: CC/C(=C\C=C\C(O)(CC)CC)c1cccc(OCc2ccc(CO)c(CO)c2)c1 [Compound 1, (4E,6E)-7-[3-(3,4-bishydroxymethyl-benzyloxy)phenyl]-3-ethylnona-4,6-dien-3-ol]
